Experimental data: US6906092B2, “Method of inhibiting matrix metalloproteinases” (Warner-Lambert Company, priority 1996, dated 2005)
Where two headings read alike, the source gives them in different places.

Tests used:
[1] = target: T1, MMP01 (fibroblast collagenase) (Homo sapiens, UniProt P03956); test: Thiopeptolide assay, MMP01; format: biochemical; settings: thiopeptolide substrate
T1 construct: purchased Washington University School of Medicine, St. Louis, Mo
T1 sequence (P03956 100-469): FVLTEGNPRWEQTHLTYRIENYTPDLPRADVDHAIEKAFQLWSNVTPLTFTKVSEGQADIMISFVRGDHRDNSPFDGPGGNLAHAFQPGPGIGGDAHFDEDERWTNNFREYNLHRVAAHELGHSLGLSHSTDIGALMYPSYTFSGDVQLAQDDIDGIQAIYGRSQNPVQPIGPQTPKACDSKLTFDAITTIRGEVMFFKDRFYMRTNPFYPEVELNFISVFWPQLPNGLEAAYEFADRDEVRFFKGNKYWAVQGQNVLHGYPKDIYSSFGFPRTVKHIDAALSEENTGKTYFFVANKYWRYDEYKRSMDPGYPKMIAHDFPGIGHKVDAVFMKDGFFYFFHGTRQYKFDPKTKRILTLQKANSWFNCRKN
Procedure: (§1) IC50 values were determined using a thiopeptolide substrate, Ac-Pro-Leu-Gly-thioester-Leu-Leu-Gly-OEt (Ye Q.-Z., Johnson L. L., Hupe D. J., and Baragi V., “Purification and Characterization of the Human Stromelysin Catalytic Domain Expressed in Escherichia coli,” Biochemistry, 1992;31:11231-11235). MMP01, MMP07, MMP09, and MMP13 activity was assayed in a method similar to MMP02 and MMP03 (SCD and GCD). MMP01 and MMP09 can be obtained from Washington University School of Medicine, St. Louis, Mo. MMP07 can be obtained in accordance with the known procedure set forth by Ye Q-Z, Johnson L. L., and Baragi V., “Gene Syntheses and Expression in E. coli for PUMP, a Human Matrix Metalloproteinase” Biochem. and Biophys. Res. Comm., 1992;186:143-149. MMP13 can be obtained in accordance with the known procedure set forth by Freije J. M. P., et al., “Molecular Cloning and Expression of Collegenase-3, a Novel Human Matrix Metalloproteinase Produced by Breast Carcinomas” J. Bio. Chem., 1994;269:16766-16773.
(§2) Hydrolysis of the thiopeptolide substrate Ac-Pro-Leu-Gly-thioester-Leu-Leu-Gly-OEt (Bachem) is used as the primary screen to determine IC50 values for MMP inhibitors. A 100 μL reaction contains 1 mM 5,5′-dithiobis(2-nitrobenzoic acid) (DTNB), 100 μM substrate, 0.1% Brij, enzyme, and inhibitor in the appropriate reaction buffer. Activated full-length enzymes are assayed at 5 nM, Stromelysin Catalytic Domain (SCD) at 10 nM, and Gelatinase A Catalytic Domain (GaCD) at 1 nM. Inhibitors are screened from 100 μM to 1 nM. Full-length enzymes are assayed in 50 mM HEPES, 10 mM CaCl2, pH 7.0; SCD in 50 mM MES, 10 mM CaCl2, pH 6.0; and GaCD in 50 mM MOPS, 10 mM CaCl2, 10 μM ZnCl2, pH 7.0.

[2] = target: MMP02 (GCD, recombinant gelatinase A catalytic domain) (Homo sapiens, UniProt P08253); test: Thiopeptolide assay, gelatinase A catalytic domain (GCD); format: biochemical; settings: thiopeptolide substrate
Procedure: as §1, §2

[3] = target: T2, MMP03 (SCD, stromelysin-1 catalytic domain) (Homo sapiens, UniProt P08254); test: Thiopeptolide assay, stromelysin-1 catalytic domain (SCD); format: biochemical; settings: thiopeptolide substrate
T2 construct: SCD (stromelysin-1 catalytic domain); made in house; host or cells: Escherichia coli
Procedure: as §1, §2

[4] = target: T3, stromelysin catalytic domain (SCD) (Homo sapiens, UniProt P08254); test: Soluble proteoglycan assay (stromelysin natural substrate assay) SCD (PG); format: biochemical; settings: solubilized proteoglycan substrate
T3 construct: SCD (stromelysin-1 catalytic domain); made in house; host or cells: Escherichia coli
Procedure: Soluble Proteoglycan Assay (Stromelysin Natural Substrate Assay) SCD (PG)
Solubilized proteoglycan substrate is prepared from bovine cartilage powder (Sigma) using the method described by Nagase and Woessner in Anal. Biochem., 1980;107:385-392. A 100 μL reaction contains 10 μg/mL proteoglycan, enzyme, and inhibitor in 50 mM MES, 10 mM CaCl2, pH 6.0. Activated full-length stromelysin or stromelysin catalytic domain (SCD) is assayed at 100 nM. Inhibitors are screened from 100 μM to 1 nM. The reaction is incubated at 37° C. for 3 hours then stopped with the addition of 1,10-phenanthroline at a final concentration of 1 mM. Reaction products are separated from undigested substrate using ultrafree-MC polysulfone microcons with a 300,000 molecular weight cut-off membrane (Millipore) and quantified using a modified […] (DMB) assay described by Farndale, Sayers, and Barrett in Connective Tissue Research, 1982;9:247-248. Absorbance is measured at 518 nm using 32 μg/mL DMB in a 1 mL reaction. The standard curve is constructed from 0 to 100 μg shark cartilage chondroitin sulfate C (Sigma).

gelatinase A = gelatinase A (Homo sapiens, UniProt P08253); test: Gelatin assay (gelatinase natural substrate assay) (Gel); format: biochemical
Procedure: Gelatin Assay (Gelatinase Natural Substrate Assay) (Gel)
Rat tail Type I collagen (Sigma) is denatured by heating at 95° C. for 20 minutes to prepare the gelatin substrate. A 50 μL reaction contains 1.12 mg/mL substrate, enzyme, inhibitor, and 80 μg/mL soy bean trypsin inhibitor as an inert internal standard in 50 mM MOPS, 10 mM CaCl2, 10 μM ZnCl2, pH 7.0. Activated full-length gelatinase A is assayed at 1 nM and gelatinase A catalytic domain (GaCD) at 10 nM. Inhibitors are screened from 100 μM to 1 nM. The reactions are incubated at 37° C. for 30 minutes then stopped with 50 μL at 2× Tricine gel loading buffer (Novex). Reaction products are separated from undigested substrate by electrophoresis on Tricine-SDS 10-20% polyacrylamide gradient gels (Novex). Protein bands are stained with Coomassie Brilliant Blue R and quantified using a Bio Image densitometer (Millipore). IC50 values are calculated from the disappearance of substrate using the sum of the top three bands of each reaction after normalization with the internal standard.

[5] = MMP inhibitor bioassay (inhibitor plasma level after gavage); format: in vivo, rat; settings: 50 mg/kg by gavage
Procedure: Animals are dosed by gavage with either vehicle or compound at 2, 10, or 50 mg/kg. Blood samples are collected from 3 to 4 animals from each dosing group at 1, 2, 4, 6, and 24 hour postdose, centrifuged, and the plasma immediately frozen at −20° C. Plasma protein is precipitated with an equal volume of acetonitrile and separated by centrifugation at room temperature. The supernate is evaporated to dryness and reconstituted to the original plasma volume with 50 mM Tris, pH 7.6. Ten-fold serial dilutions of the reconstituted plasma samples are prepared in 50 mM Tris, pH 7.6 for dose response assays using the appropriate thiopeptolide assay. […] All control samples are subjected to acetonitrile precipitation and analyzed with the thiopeptolide assay.

MMP07 (matrilysin) = target: T4, MMP07 (matrilysin) (Homo sapiens, UniProt P09237); test: Thiopeptolide assay, MMP07; format: biochemical; settings: thiopeptolide substrate
T4 construct: made in house; host or cells: E. coli
T4 sequence (P09237 95-267): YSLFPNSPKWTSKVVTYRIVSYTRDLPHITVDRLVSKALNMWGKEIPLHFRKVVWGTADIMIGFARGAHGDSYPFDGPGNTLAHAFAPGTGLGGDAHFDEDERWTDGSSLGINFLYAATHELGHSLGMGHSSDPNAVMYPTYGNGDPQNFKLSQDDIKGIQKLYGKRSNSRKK
Procedure: as §1, §2

MMP13 (collagenase-3) = target: T5, MMP13 (collagenase-3) (Homo sapiens, UniProt P45452); test: Thiopeptolide assay, MMP13; format: biochemical; settings: thiopeptolide substrate
T5 construct: made in house
Procedure: as §1, §2

[6] = catalytic domain, read-out: (GCD) MMP02 IC50
[7] = catalytic domain, read-out: (SCD) MMP03 IC50

T2 sequence (P08254 100-272 limits assumed): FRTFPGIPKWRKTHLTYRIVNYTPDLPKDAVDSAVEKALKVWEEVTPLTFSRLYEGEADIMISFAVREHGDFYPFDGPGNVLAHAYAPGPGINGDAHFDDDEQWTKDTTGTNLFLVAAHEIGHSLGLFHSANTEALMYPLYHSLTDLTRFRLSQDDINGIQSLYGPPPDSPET
MMP02 (GCD, recombinant gelatinase A catalytic domain), sequence (P08253 110-221 limits assumed): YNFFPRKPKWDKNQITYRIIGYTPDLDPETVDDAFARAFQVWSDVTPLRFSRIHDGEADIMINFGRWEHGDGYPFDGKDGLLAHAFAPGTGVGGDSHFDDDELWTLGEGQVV
MMP02 (GCD, recombinant gelatinase A catalytic domain), sequence (P08253 397-465 limits assumed): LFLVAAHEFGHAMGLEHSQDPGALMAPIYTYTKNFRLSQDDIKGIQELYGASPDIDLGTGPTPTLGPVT
T3 sequence (P08254 100-272 limits assumed): as the sequence (P08254 100-272 limits assumed) above

IC50 [2, 6]	IC50 [3, 7]	SMILES	other results
0.32 µM	–	CC(C)C[C@H](NS(=O)(=O)c1ccc2oc3ccccc3c2c1)C(=O)O [Example 1, (L)-2-(Dibenzofuran-2-sulfonylamino)-4-methyl-pentanoic acid]	IC50 [1]: 66 µM
2.3 µM	1.5 µM	CCC(C)[C@H](NS(=O)(=O)c1ccc2oc3ccccc3c2c1)C(=O)O (stereo partly shown) [Example 2, (L)-2-(Dibenzofuran-2-sulfonylamino)-3-methyl-pentanoic acid]	–
0.9 µM	–	O=C(O)[C@H](Cc1ccccc1)NS(=O)(=O)c1ccc2oc3ccccc3c2c1 [Example 3, (L)-2-(Dibenzofuran-2-sulfonylamino)-3-phenyl-propionic acid]	melting point: 196 to 198 °C
1.7 µM	5.4 µM	C[C@H](NS(=O)(=O)c1ccc2oc3ccccc3c2c1)C(=O)O [Example 4, (L)-2-(Dibenzofuran-2-sulfonylamino)-propionic acid]	–
0.084 µM	–	CC(C)[C@H](NS(=O)(=O)c1ccc2oc3ccccc3c2c1)C(=O)O [Example 5, (L)-2-(Dibenzofuran-2-sulfonylamino)-3-methyl-butyric acid]	IC50 [1]: 19 µM; IC50 ([2]; Table 2, read-out: GCD (IC50)): 0.084 µM; IC50 ([3]; Table 2, read-out: SCD (IC50)): 0.233 µM; IC50 [4]: 8.9 µM; IC50 (gelatinase A): 0.58 µM; Bioassay Peak (inhibitor plasma level) ([5]; peak): 82 µM; concentration at 24 h ([5]; rat, plasma, oral, 24 hours postdose): 0.18 µM; melting point: 163 to 165 °C
0.73 µM	4.8 µM	O=C(O)CNS(=O)(=O)c1ccc2oc3ccccc3c2c1 [Example 6, (Dibenzofuran-2-sulfonylamino)-acetic acid]	melting point: 208 to 210 °C
1.2 µM	1 µM	O=C(O)C[C@H](NS(=O)(=O)c1ccc2oc3ccccc3c2c1)C(=O)O [Example 7, (L)-2-(Dibenzofuran-2-sulfonylamino)-succinic acid]	melting point: 165 to 168 °C
9.4 µM	–	O=C(O)[C@H](CSC(c1ccccc1)(c1ccccc1)c1ccccc1)NS(=O)(=O)c1ccc2oc3ccccc3c2c1 [Example 8, (L)-2-(Dibenzofuran-2-sulfonylamino)-3-tritylsulfanyl-propionic acid]	–
4.5 µM	–	O=C(O)[C@H](CS)NS(=O)(=O)c1ccc2oc3ccccc3c2c1 [Example 9, (L)-2-(Dibenzofuran-2-sulfonylamino)-3-mercapto-propionic acid]	–
35 µM	–	CCC(C)[C@H](NS(=O)(=O)c1ccc2oc3ccccc3c2c1)C(=O)NO (stereo partly shown) [Example 10, (L)-2-(Dibenzofuran-2-sulfonylamino)-3-methyl-pentanoic acid hydroxyamide]	–
0.0045 µM	0.015 µM	CC(C)[C@H](NS(=O)(=O)c1ccc2c(c1)oc1ccccc12)C(=O)O [Example 11, (L)-2-(dibenzofuran-3-sulfonylamino)-3-methyl-butyric acid]	IC50 [1]: 1.8 µM; IC50 (MMP07 (matrilysin)): 5 µM; IC50 (MMP13 (collagenase-3)): 0.047 µM
0.049 µM	0.185 µM	CC(C)[C@H](NS(=O)(=O)c1ccc2c(c1)Cc1ccccc1-2)C(=O)O [Example 12, (L)-2-(9H-Fluorene-2-sulfonylamino)-3-methyl-butyric acid]	IC50 [1]: 32.3 µM; IC50 (MMP07 (matrilysin)): 10.8 µM; IC50 (MMP13 (collagenase-3)): 0.34 µM
0.61 µM	0.69 µM	CC(C)[C@H](NS(=O)(=O)c1ccc2sc3ccccc3c2c1)C(=O)O [Example 14, (L)-2-(Dibenzothiophene-2-sulfonylamino)-3-methyl-butyric acid]	IC50 (MMP07 (matrilysin)): 27 µM; IC50 (MMP13 (collagenase-3)): 2.6 µM
0.47 µM	0.75 µM	CC(C)[C@H](NS(=O)(=O)c1ccc2oc3cc(Br)ccc3c2c1)C(=O)O [Example 16, (L)-2-(7-Bromo-dibenzofuran-2-sulfonylamino)-3-methyl-butyric acid]	–
0.36 µM	0.062 µM	CC(C)[C@H](NS(=O)(=O)c1ccc2oc3cc(-c4ccccc4)ccc3c2c1)C(=O)O [Example 17, (L)-3-Methyl-2-(7-phenyl-dibenzofuran-2-sulfonylamino)-butyric acid]	IC50 (MMP07 (matrilysin)): 6 µM; IC50 (MMP13 (collagenase-3)): 0.69 µM
